Where a SMILES comes first, the peptide text is derived from it.
Experiments:
[1] = Method: Liposome permeabilization assays. Liposomes were constructed by hydration of dried lipid films with 10 mM Hepes and 30 mM calcein to a final lipid concentration of 10 mg/ml. Resulting multilamellar liposomes were extruded through a 0.1 μm polycarbonate filter at temperatures above the transition point of the particular lipid mixture. Untapped calcein was removed by gel filtration (Sephacryl S-300 HR). Permeabilization of liposomes was monitored fluorimetrically with a Perkin Elmer LS-55 luminescent spectrophotometer. Assays were performed by diluting liposomes 1:1000 into the appropriate buffer and monitoring fluorescence when excited by 484 nm light (5 nm slit width) and reading the emission intensity at 513 nm (10 nm slit widths). The percentage calcein release was calculated relative to the 100% fluorescence intensity, achieved by the addition of 0.01% Triton X-100.
[2] = test system: Human embryonic kidney cells (HEK)
[3] = test system: bloodstream form T. b. brucei (wild type 427); assay: Trypanosome lysis assay with Hpr-SP; format: cell-based, Trypanosoma brucei brucei; conditions: 8-80 μM peptide, 2 h, 37° C.
Method: Trypanosome lysis assays. Trypanosomes were cultured in the appropriate media and incubated at a cell density of 3×10^6 cells/ml with the addition of peptide from a 10 mg/ml stock in DMSO, or control reagents for 2 hours (h) at 37° C. Lysis of bloodstream form trypanosomes was evaluated by phase-contrast microscopy. Procyclic form trypanosomes were stained with 0.1% trypan blue. Trypan blue staining was also used for some bloodstream form assays to eliminate any possible discrepancy between the procyclic and bloodstream form assays.

[4] = test system: Bloodstream form T. b. brucei Lister 427; assay: Trypanosome killing assay, Example 2; format: cell-based, Trypanosoma brucei brucei; conditions: two hours at 37° C.
Method: Trypanosome killing assays. Bloodstream form T. b. brucei Lister 427 (MiTat 1.2), T. b. gambiense type 1 (Eliane strain) and T. b. rhodesiense KETR12482 were used in these studies. Trypanosome killing assays were performed as described previously (Hajduk et al., 1989, J Biol Chem; 264(9):5210-5217; Shiflett et al., 2005, J Biol Chem; 280(38):32578-32585; and Widener et al., 2007, PLoS Pathog; 3(9):1250-1261). Cultured trypanosomes (except for T. b. gambiense which were incubated at 1×10^6 cells/ml) were incubated in HMI-9 media (BSF) or SM media (PCF) at a density of 1×10^7 cells/ml containing either 10% heat inactivated fetal bovine serum or bovine serum albumin and peptide or control reagents for two hours at 37° C. Killing of BSF trypanosomes was evaluated by phase-contrast microscopy. Procyclic form trypanosomes were stained with 0.1% trypan blue. Trypan blue staining was also used for some BSF assays to eliminate any possible discrepancy between the PCF and BSF assays. Trypan blue was added at the endpoint of each assay to avoid any toxic effects.

[5] = test system: BSF T. b. brucei; assay: Trypanosome killing assay, Example 4; format: cell-based, Trypanosoma brucei brucei; conditions: two hour killing assay, 37° C.
Method: Trypanosome Killing Assays. Light microscopy based trypanosome killing assays were performed as previously described in detail (Harrington et al., 2010, J Biol Chem; 285(37):28659-66; Widener et al., 2007, PLoS Pathog; 3(9):1250-61; Shiflett et al., 2007, J Eukaryot Microbiol; 54(1):18-21; and Hajduk et al., 1989, J Biol Chem; 264(9):5210-7). Metacyclic T. b. brucei TREU 667 were obtained from dissection of the salivary glands of infected tsetse flies. Newly hatched Glossina morsitans morsitans (24-48 hours post eclosion) were fed defibrinated horse blood containing 2×10^6 ml^−1 trypanosomes and maintained at 25° C. in 75% relative humidity and fed maintenance blood meals three times per week. Following day 20-30, flies were harvested and salivary glands were dissected out and washed in HMI 9 media containing 10% fetal bovine serum. Metacyclic cells were collected via centrifugation and maintained in HMI 9 media with 10% fetal bovine serum at 37° C. in 5% CO2 until use. Killing assays were conducted with 1×10^4 cells/ml in HMI 9 media containing 10% fetal bovine serum. Trypanosoma vivax and T. congolense were grown from stabilites in donor ICR mouse (Harlan, United Kingdom). Parasites were harvested from mice by terminal exsanguination and passage of infected blood through a small anion exchange column. Cells were maintained in HMI 9 with 20% goat serum at 37° C. in 5% CO2 until use. Killing assays were performed with 1×10^7 cells/ml in HMI 9 media with either 20% goat serum, in the case of T. vivax and T congolense, and 10% fetal bovine serum, for T. b. brucei. Cells were incubated at 37° C. for 2 hours and dead parasites were scored visually. All were conducted in at least duplicate, and data points are the averages with standard deviations.

[6] = test system: BSF T. b. brucei; assay: Trypanosome motility by video microscopy, Example 4; format: cell-based, Trypanosoma brucei brucei; conditions: 40 μM peptide, 37° C.
Method: Trypanosome motility. All images and videos were acquired with an Axio Observer Z1 equipped with an AxioCam MRm controlled by AxioVision 4.6 software. Videos were acquired with live cells at a density of 1×10^7 cells/ml in HMI 9 media with 10% fetal bovine serum, incubated with 40 µM SHP-1 at 37° C. Videos were recorded at magnification 63× with 50-ms acquisition times. The motility of BSF trypanosomes was scored visually from video playback of trypanosomes scanned throughout 10 μl aliquots. Data is shown as the average of triplicate trials with standard deviations.

[7] = test system: plasma membrane of live BSF T. b. brucei; assay: Anisotropy assays with DPH and TMA-DPH, Example 4; format: cell-based, Trypanosoma brucei brucei; conditions: 37° C.
Method: Anisotropy Assays. The plasma membrane rigidity of live T. b. brucei was determined by measuring the fluorescence depolarization of diphenyl-1,3,5-hexatriene p-toluenesulfonate (DPH) or 1-(4-trimethylammoniumphenyl)-6-diphenyl-1,3,5-hexatriene p-toluenesulfonate (TMA-DPH; Invitrogen T204). Cells were washed 3 times with and resuspended in PBS at a density of 3×10^6 cells/ml. The anisotropic probes were added to a final concentration of […] and allowed to intercalate into the cell membrane for one hour in the dark. Anisotropic values were acquired via the software function of a PerkinElmer Life Sciences LS55 spectrofluorometer. Samples were excited at 358 nm, and emission was read at 430 nm, both with 10-nm slit widths. Temperature was maintained at 37° C. by means of the PerkinElmer LS55 Biokinetics accessory. Data were corrected for light scattering with an unlabeled sample of cells, and anisotropy was calculated according to the equation r=(IVV−GIVH)/(IVV+2GIVH), where r is the anisotropy value, IVV is the emission intensity acquired with the excitation- and emission-polarizing filters set vertically, G is the instrument correction factor, and IVH is the emission intensity acquired with the excitation-polarizing filter set vertically and the emission-polarizing filter set horizontally. All assays were conducted at 37° C. […]

Row | Compound | killing of BSF T. b. brucei [4] | killing of BSF T. brucei (trypanocidal activity) [5] | also measured
1 | CC[C@H](C)[C@H](NC(=O)[C@@H](NC(=O)[C@H](C)NC(=O)CNC(=O)[C@H](CC(C)C)NC(=O)[C@H](CC(=O)O)NC(=O)[C@H](CO)NC(=O)[C@@H](N)CCSC)C(C)C)C(=O)N[C@@H](CO)C(=O)N[C@@H](CC(C)C)C(=O)N[C@@H](CC(C)C)C(=O)N[C@@H](CC(C)C)C(=O)N[C@@H](Cc1c[nH]c2ccccc12)C(=O)NCC(=O)N[C@@H](CCCNC(=N)N)C(=O)N[C@@H](CCC(N)=O)C(=O)N[C@@H](CC(C)C)C(=O)N[C@@H](Cc1ccccc1)C(=O)N[C@@H](C)C(=O)O [Hpr-SP, MSDLGAVISLLLWGRQLFA] (H-MSDLGAVISLLLWGRQLFA-OH; N-terminus and C-terminus assumed) | – | – | permeabilization of DSPC liposomes (calcein leakage) ([1]; neutral or acidic pH): no permeabilizing activity at neutral or acidic pH; permeabilization of egg PC liposomes (calcein leakage) ([1]; robust at pH 6.8): readily permeabilized by nanomolar concentrations; toxicity towards human embryonic kidney cells [2]: No toxicity was observed
2 | ERTEESWGRRFWRRGEAC (non-specific, hydrophilic peptide predicted from the N-terminus of the alternatively edited protein-1 from mitochondria of T. b. brucei) [NSP, Non-specific hydrophilic peptide predicted from the N-terminus of alternatively edited protein-1 of T. b. brucei mitochondria, reference compound] | exhibited no toxicity | – | killing (trypanolysis) of bloodstream form trypanosomes [3]: gave no trypanolysis
3 | FHQIWAALLYFYGIIENSIY (derivative of SHP-3 having a leucine to glutamic acid substitution at position -5) [SHP-3ΔE] | – | does not | –
4 | SRLGAVISLLLWGDQLFA (derivative of SHP-1 having an aspartic acid to arginine substitution at position 2 and an arginine to aspartic acid subsitution at position -5) [SHP-1-swap, SHP-1 with aspartic acid at position 2 and arginine at position −5 swapped] | – | loss of trypanocidal activity | –
5 | SDVISLLLWGRQLFA (derivative of SHP-1 having a deletion of the N-terminal leucine-glycine-alanine residues) [SHP-1-ΔLGA, Derivative of SHP-1 with a deletion of the N-terminal leucine-glycine-alanine residues] | complete lose of trypanosome killing activity | – | –
6 | FHQIWAALLYFYGIIRNSIY (derivative of SHP-3 having a leucine to arginine substitution at position -5) [SHP-3ΔR] | – | confers trypanocidal activity | motility phenotype (hyperactivation, constriction) [6]: induce both initial hyperactivation and subsequent constriction; rigidity of the interfacial region of the plasma membrane (TMA-DPH) [7]: increased the rigidity of the interfacial region of the plasma membrane
7 | SDLGAVISLLWGRQLFA (derivative of SHP-1 having a single leucine deletion) [SHP-1-ΔL] | – | – | decrease in trypanocidal activity relative to SHP-1 [4]: five-fold
8 | AKLIALTLLGMGLALFRNHQS (amino acid sequence of small hydrophobic peptide -2 (SHP-2)) [Signal peptide of human paraoxonase-1 without the N-terminal methionine] | equivalent to SHP-1 | – | –
9 | SDLGAVISWGRQLFA (derivative of SHP-1 having a deletion of C-terminal leucine in triplicate) [SHP-1-ΔLLL, Derivative of SHP-1 with deletion of C-terminal leucine triplicate] | complete lose of trypanosome killing activity | – | –
